Reference: patent publication US7893063B2, “2,4,6-trisubstituted pyrimidines as phosphotidylinositol (PI) 3-kinase inhibitors and their use in the treatment of cancer” (AstraZeneca AB, priority 2004, dated 2011)

What was measured:
p110α Type Ia human PI3K = target: T1, p110α Type Ia human PI3K (Homo sapiens, UniProt P42336); assay: In vitro enzyme assay (AlphaScreen), Test (a); format: biochemical; conditions: recombinant enzyme, PI(4,5)P2 substrate, ATP 4 μM, read-out: IC50 versus p110α Type Ia human PI3K
T1 construct: full length DNA of each of the p110α, p110β and p110δ Type Ia human PI3K p110 isoforms; 6-His; made in house; Grp1 PH domain in E. coli
T1 sequence (P42336 whole entry, the tested form may be a part, canonical isoform): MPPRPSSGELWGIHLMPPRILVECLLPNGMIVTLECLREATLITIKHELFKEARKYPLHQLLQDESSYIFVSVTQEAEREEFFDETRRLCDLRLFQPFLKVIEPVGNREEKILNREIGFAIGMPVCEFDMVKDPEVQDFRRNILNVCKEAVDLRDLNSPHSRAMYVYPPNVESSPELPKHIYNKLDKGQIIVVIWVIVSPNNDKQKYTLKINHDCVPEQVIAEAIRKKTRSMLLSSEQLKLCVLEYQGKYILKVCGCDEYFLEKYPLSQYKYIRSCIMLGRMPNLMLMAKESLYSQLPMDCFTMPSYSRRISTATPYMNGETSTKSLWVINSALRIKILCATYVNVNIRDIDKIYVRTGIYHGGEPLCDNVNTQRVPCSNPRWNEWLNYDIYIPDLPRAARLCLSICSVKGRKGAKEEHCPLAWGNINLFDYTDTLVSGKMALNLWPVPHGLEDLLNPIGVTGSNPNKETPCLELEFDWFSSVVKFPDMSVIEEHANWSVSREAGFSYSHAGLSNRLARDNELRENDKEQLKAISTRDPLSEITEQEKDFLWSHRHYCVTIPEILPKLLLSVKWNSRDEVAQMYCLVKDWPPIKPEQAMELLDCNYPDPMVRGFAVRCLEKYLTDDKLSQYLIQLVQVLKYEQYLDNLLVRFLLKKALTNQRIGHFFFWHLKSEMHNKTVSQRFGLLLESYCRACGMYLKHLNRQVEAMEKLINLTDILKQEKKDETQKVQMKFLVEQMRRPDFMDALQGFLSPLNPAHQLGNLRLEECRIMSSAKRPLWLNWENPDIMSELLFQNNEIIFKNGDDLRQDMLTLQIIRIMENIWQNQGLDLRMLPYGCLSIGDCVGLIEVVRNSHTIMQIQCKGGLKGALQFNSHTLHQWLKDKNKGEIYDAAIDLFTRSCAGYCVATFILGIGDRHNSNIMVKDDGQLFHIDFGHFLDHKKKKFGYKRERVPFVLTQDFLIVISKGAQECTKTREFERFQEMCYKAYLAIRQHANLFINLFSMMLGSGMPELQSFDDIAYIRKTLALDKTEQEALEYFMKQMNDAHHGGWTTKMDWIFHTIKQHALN
T1 sequence (P27986 whole entry partner, the tested form may be a part, canonical isoform): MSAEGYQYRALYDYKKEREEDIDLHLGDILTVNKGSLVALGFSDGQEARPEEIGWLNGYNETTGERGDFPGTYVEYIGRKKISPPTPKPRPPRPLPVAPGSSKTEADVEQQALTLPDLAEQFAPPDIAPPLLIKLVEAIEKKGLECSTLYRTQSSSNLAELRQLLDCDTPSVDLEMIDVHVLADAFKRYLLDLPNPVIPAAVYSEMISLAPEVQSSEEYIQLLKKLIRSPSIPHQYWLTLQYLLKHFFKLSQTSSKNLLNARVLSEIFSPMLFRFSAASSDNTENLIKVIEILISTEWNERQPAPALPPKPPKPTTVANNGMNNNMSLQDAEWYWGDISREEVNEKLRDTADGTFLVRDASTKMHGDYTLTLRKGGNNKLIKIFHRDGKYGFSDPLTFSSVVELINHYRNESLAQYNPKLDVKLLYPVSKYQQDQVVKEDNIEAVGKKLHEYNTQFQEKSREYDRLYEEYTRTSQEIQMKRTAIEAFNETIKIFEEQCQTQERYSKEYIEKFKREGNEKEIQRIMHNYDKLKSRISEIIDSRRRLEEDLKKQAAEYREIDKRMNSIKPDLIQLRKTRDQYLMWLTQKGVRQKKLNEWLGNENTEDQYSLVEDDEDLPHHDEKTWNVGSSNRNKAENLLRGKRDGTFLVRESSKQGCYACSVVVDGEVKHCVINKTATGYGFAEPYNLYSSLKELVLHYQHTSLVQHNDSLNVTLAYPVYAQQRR
Excerpt: (a) In Vitro Enzyme Assay
The assay used AlphaScreen technology (Gray et al., Analytical Biochemistry, 2003, 313: 234-245) to determine the ability of test compounds to inhibit phosphorylation by recombinant Type I PI3K enzymes of the lipid PI(4,5)P2.
DNA fragments encoding human PI3K catalytic and regulatory subunits were isolated from cDNA libraries using standard molecular biology and PCR cloning techniques. The selected DNA fragments were used to generate baculovirus expression vectors. In particular, full length DNA of each of the p110α, p110β and p110δ Type Ia human PI3K p110 isoforms (EMBL Accession Nos. HSU79143, S67334, Y10055 for p110α, p110β and p110δ respectively) were sub-cloned into a pDEST10 vector (Invitrogen Limited, Fountain drive, Paisley, UK). The vector is a Gateway-adapted version of Fastbac1 containing a 6-His epitope tag. A truncated form of Type Ib human PI3K p110γ isoform corresponding to amino acid residues 144-1102 (EMBL Accession No. X8336A) and the full length human p85α regulatory subunit (EMBL Accession No. HSP13KIN) were also sub-cloned into pFastBac1 vector containing a 6-His epitope tag. The Type Ia p110 constructs were co-expressed with the p85α regulatory subunit. Following expression in the baculovirus system using standard baculovirus expression techniques, expressed proteins were purified using the His epitope tag using standard purification techniques.
DNA corresponding to amino acids 263 to 380 of human Grp1 PH domain was isolated from a cDNA library using standard molecular biology and PCR cloning techniques. The resultant DNA fragment was sub-cloned into a pGEX 4T1 E. coli expression vector containing a GST epitope tag (Amersham Pharmacia Biotech, Rainham, Essex, UK) as described by Gray et al., Analytical Biochemistry, 2003, 313: 234-245). The GST-tagged Grp1 PH domain was expressed and purified using standard techniques.
Test compounds were prepared as 10 mM stock solutions in DMSO and diluted into water as required to give a range of final assay concentrations. Aliquots (2 μl) of each compound dilution were placed into a well of a Greiner 384-well low volume (LV) white polystyrene plate (Greiner Bio-one, Brunel Way, Stonehouse, Gloucestershire, UK Catalogue No. 784075). […]
Biotinylated-DiC8-PI(3,4,5)P3 (50 nM; Cell Signals Inc., Catalogue No. 107), recombinant purified GST-Grp1 PH protein (2.5 nM) and AlphaScreen Anti-GST donor and acceptor beads (100 ng; Packard Bioscience Limited, Station Road, Pangbourne, Berkshire, UK, Catalogue No. 6760603M) were added and the assay plates were left for about 5 to 20 hours at ambient temperature in the dark. The resultant signals arising from laser light excitation at 680 nm were read using a Packard AlphaQuest instrument. […]

[1] = system: phosphorylation of Serine 473 in Akt; assay: In vitro phospho-Ser473 Akt assay, Test (b); format: cell-based; conditions: Homo sapiens, MDA-MB-468 cells, 2 hours incubation, read-out: IC50, inhibition of phosphorylation of Serine 473 in Akt
Protocol: (b) In Vitro Phospho-Ser473 Akt Assay
This assay determines the ability of test compounds to inhibit phosphorylation of Serine 473 in Akt as assessed using Acumen Explorer technology (Acumen Bioscience Limited), a plate reader that can be used to rapidly quantitate features of images generated by laser-scanning.
A MDA-MB-468 human breast adenocarcinoma cell line (LGC Promochem, Teddington, Middlesex, UK, Catalogue No. HTB-132) was routinely maintained at 37° C. with 5% CO2 up to a confluency of 70-90% in Dulbecco's modified Eagle's growth medium (DMEM; Invitrogen Limited, Paisley, UK Catalogue No. 41966-029) containing 10% heat-inactivated foetal calf serum (FCS; Sigma, Poole, Dorset, UK, Catalogue No. F0392) and 1% L-glutamine (Gibco, Catalogue No. 25030-024).
For the assay, the cells were detached from the culture flask using ‘Accutase’ (Innovative Cell Technologies Inc., San Diego, Calif., USA; Catalogue No. AT104) using standard tissue culture methods and resuspended in media to give 1.7×10^5 cells per ml. Aliquots (90 μl) were seeded into each of the inner 60 wells of a black Packard 96 well plate (PerkinElmer, Boston, Mass., USA; Catalogue No. 6005182) to give a density of ˜15000 cells per well. Aliquots (90 μl) of culture media were placed in the outer wells to prevent edge effects. The cells were incubated overnight at 37° C. with 5% CO2 to allow them to adhere.
On day 2, the cells were treated with test compounds and incubated for 2 hours at 37° C. with 5% CO2. Test compounds were prepared as 10 mM stock solutions in DMSO and serially diluted as required with growth media to give a range of concentrations that were 10-fold the required final test concentrations. Aliquots (10 μl) of each compound dilution were placed in a well (in triplicate) to give the final required concentrations. […]
All subsequent aspiration and wash steps were carried out using a Tecan 96 well plate washer (aspiration speed 10 mm/sec). […] An aliquot of PBS (50 μl) was added to each well and the plates were sealed with black plate sealers and the fluorescence signal was detected and analysed. […]

IC50 (p110α Type Ia human PI3K) | IC50 [1] | SMILES
~10 µM | ~50 µM | O=C(Nc1cccc(-c2nc(-c3ccc(CO)s3)cc(N3CCOCC3)n2)c1)C1CCNCC1 [Example 1, 4-(5-hydroxymethylthien-2-yl)-6-morpholino-2-(3-piperidin-4-ylcarbonylaminophenyl)pyrimidine]
~12 µM | ~28 µM | COc1ncc(-c2cc(N3CCOCC3)nc(-c3cccc(NC(C)=O)c3)n2)cn1 [Example 2, 2-(3-acetamidophenyl)-4-(2-methoxypyrimidin-5-yl)-6-morpholinopyrimidine]
~0.6 µM | – | O=C(Nc1cccc(-c2cc(N3CCOCC3)nc(-c3ccc(CO)o3)n2)c1)C1CCCNC1 (stereo not shown) [Example 4, 2-(5-hydroxymethylfuran-2-yl)-6-morpholino-4-(3-piperidin-3-ylcarbonylaminophenyl)pyrimidine]
~0.5 µM | ~1 µM | O=C(Nc1cccc(-c2nc(-c3ccc(CO)o3)cc(N3CCOCC3)n2)c1)C1CCNCC1 [Example 5, 4-(5-hydroxymethylfuran-2-yl)-6-morpholino-2-(3-piperidin-4-ylcarbonylaminophenyl)pyrimidine]
